Results from patent publication US12582625B2, “Methods for treating neuroblastoma” (priority 2015, dated 2026).
Where “and” joins values, the source holds several entries; their conditions need not be identical. Equal values may be shown once.

Key:
[1] = system: urinary polyamines; experiment: NMTRC 002: urinary polyamine levels during DFMO therapy; format: in vivo, human
Method: Urinary Polyamine Levels. Patients were consented for urine analysis in NMTRC 002. […] Polyamines with at least one free primary amine were quantified using reverse-phase high-performance liquid chromatography (HPLC) as previously described (Thompson et al., 2010). Urinary N^1,N^12-diacetylspermine (N^1,N^12-Ac2Spm or DAS) was determined using the auto DAS reagent kit (Alfresa Pharma Co., Osaka, Japan), according to the manufacturer's instructions. The assay involves the specific binding between a bovine serum albumin-acetylspermine conjugate, as a DAS mimic, and colloidal gold antibody complexes, and has been previously described (Kawakita et al., 2011).

[2] = system: tumors harboring Ki-ras mutations; conditions: AOM-treated rats, reduced from 90% (Singh et al., 1994); cited from earlier work
[3] = toxicities related to DFMO alone
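Throughout, for Nausea, maximum Grade 5, patients (%): Open-label multicenter phase I 3+3 dose escalation in patients aged 0-21 years with relapsed or refractory neuroblastoma, dosed twice daily.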
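Throughout, for Neuropathy, maximum Grade 2, patients (%): Open-label multicenter phase I 3+3 dose escalation in patients aged 0-21 years with relapsed or refractory neuroblastoma, dosed twice daily.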
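Throughout, for Neuropathy, maximum Grade 3, patients (%): Open-label multicenter phase I 3+3 dose escalation in patients aged 0-21 years with relapsed or refractory neuroblastoma, dosed twice daily.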
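Throughout, for Neuropathy, maximum Grade 4, patients (%): Open-label multicenter phase I 3+3 dose escalation in patients aged 0-21 years with relapsed or refractory neuroblastoma, dosed twice daily.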

With `NCCCC(N)(C(=O)O)C(F)F` (centres unmarked) [DFMO, 2,5-diamino-2-(difluoromethyl) pentanoic acid] the “Nausea, maximum Grade 5, patients (%)” value (Cycle 1 (N = 21)) was 0, the “Neuropathy, maximum Grade 2, patients (%)” value (Cycle 1 (N = 21)) was 0 and the “Neuropathy, maximum Grade 3, patients (%)” value (Cycle 1 (N = 21)) was 0. For the same compound, the “Neuropathy, maximum Grade 4, patients (%)” value (Cycle 1 (N = 21)) was 0, the “Neuropathy, maximum Grade 5, patients (%)” value (Cycle 1 (N = 21)) was 0 and the “Neutrophil count decrease, maximum Grade 2, patients (%)” value (Cycle 1 (N = 21)) was 1 (5%). The “Neutrophil count decrease, maximum Grade 3, patients (%)” value (Cycle 1 (N = 21)) was 1 (5%), the “Neutrophil count decrease, maximum Grade 4, patients (%)” value (Cycle 1 (N = 21)) was 0 and the “Neutrophil count decrease, maximum Grade 5, patients (%)” value (Cycle 1 (N = 21)) was 0. For the same compound, the “Pain, maximum Grade 2, patients (%)” value (Cycle 1 (N = 21)) was 0, the “Pain, maximum Grade 3, patients (%)” value (Cycle 1 (N = 21)) was 0 and the “Pain, maximum Grade 4, patients (%)” value (Cycle 1 (N = 21)) was 0. The “Pain, maximum Grade 5, patients (%)” value (Cycle 1 (N = 21)) was 0, the “Platelet count decrease, maximum Grade 2, patients (%)” value (Cycle 1 (N = 21)) was 1 (5%) and the “Platelet count decrease, maximum Grade 3, patients (%)” value (Cycle 1 (N = 21)) was 1 (5%). The “Platelet count decrease, maximum Grade 4, patients (%)” value (Cycle 1 (N = 21)) was 0, the “Platelet count decrease, maximum Grade 5, patients (%)” value (Cycle 1 (N = 21)) was 0 and the “Rash, maximum Grade 2, patients (%)” value (Cycle 1 (N = 21)) was 0. For the same compound, the “Rash, maximum Grade 3, patients (%)” value (Cycle 1 (N = 21)) was 0, the “Rash, maximum Grade 4, patients (%)” value (Cycle 1 (N = 21)) was 0 and the “Rash, maximum Grade 5, patients (%)” value (Cycle 1 (N = 21)) was 0. The “Sleep disturbance, maximum Grade 2, patients (%)” value (Cycle 1 (N = 21)) was 1 (5%), the “Sleep disturbance, maximum Grade 3, patients (%)” value (Cycle 1 (N = 21)) was 0 and the “Sleep disturbance, maximum Grade 4, patients (%)” value (Cycle 1 (N = 21)) was 0. The “Sleep disturbance, maximum Grade 5, patients (%)” value (Cycle 1 (N = 21)) was 0, the “Urinary retention, maximum Grade 2, patients (%)” value (Cycle 1 (N = 21)) was 1 (5%) and the “Urinary retention, maximum Grade 3, patients (%)” value (Cycle 1 (N = 21)) was 0. For the same compound, the “Urinary retention, maximum Grade 4, patients (%)” value (Cycle 1 (N = 21)) was 0, the “Urinary retention, maximum Grade 5, patients (%)” value (Cycle 1 (N = 21)) was 0 and the “Vomiting, maximum Grade 2, patients (%)” value (Cycle 1 (N = 21)) was 1 (5%). The “Vomiting, maximum Grade 3, patients (%)” value (Cycle 1 (N = 21)) was 0, the “Vomiting, maximum Grade 4, patients (%)” value (Cycle 1 (N = 21)) was 0 and the “Vomiting, maximum Grade 5, patients (%)” value (Cycle 1 (N = 21)) was 0. For the same compound, the “White blood cell decreased, maximum Grade 2, patients (%)” value (Cycle 1 (N = 21)) was 0, the “White blood cell decreased, maximum Grade 3, patients (%)” value (Cycle 1 (N = 21)) was 0 and the “White blood cell decreased, maximum Grade 4, patients (%)” value (Cycle 1 (N = 21)) was 0. For the same compound, the “White blood cell decreased, maximum Grade 5, patients (%)” value (Cycle 1 (N = 21)) was 0, the “ALT increase, N of subjects” value [3] was 1 and the “ANC decrease, N of subjects” value [3] was 2. For the same compound, the “AST increase, N of subjects” value [3] was 1, the “anemia, N of subjects” value [3] was 3 and the “anorexia, N of subjects” value [3] was 1. The “constipation, N of subjects” value [3] was 1, the “decreased platelet count, N of subjects” value [3] was 2 and the “diarrhea, N of subjects” value [3] was 1. The “hypoalbuminemia, N of subjects” value [3] was 1, the “hypophosphatemia, N of subjects” value [3] was 1 and the “increased GGT, N of subjects” value [3] was 1. For the same compound, the “infection (conjunctivitis), N of subjects” value [3] was 1, the “sleep disturbance, N of subjects” value [3] was 1 and the “urinary retention, N of subjects” value [3] was 1. The “vomiting, N of subjects” value [3] was 1, the “maximum tolerated dose (MTD)” value (up to 1500 mg/m^2 BID) was “not established” and the “DAS increase from Cycle 1 Day 1, individual patients” value (“DAS increase” for short) ([1]; DFMO dose 500 mg/m^2 BID) was “Yes and No”. For the same compound, the “UPA Cycle 1 Day 8 (sum of putrescine, N1AcSpd, N8AcSpd and DAS), individual patients” value ([1]; DFMO dose 500 mg/m^2 BID) was 4.20 and 15.70 and 11.69, the “DAS increase” value ([1]; DFMO dose 750 mg/m^2 BID) was “No (2×) and Yes (3×)” and the “UPA Cycle 1 Day 8 (sum of putrescine, N1AcSpd, N8AcSpd and DAS), individual patients” value ([1]; DFMO dose 750 mg/m^2 BID) was 7.80 and 22.08 and 1.94 and 13.46. The “DAS increase” value ([1]; DFMO dose 1000 mg/m^2 BID) was “No and Yes (2×)”, the “UPA Cycle 1 Day 8 (sum of putrescine, N1AcSpd, N8AcSpd and DAS), individual patients” value ([1]; DFMO dose 1000 mg/m^2 BID) was 8.71 and 3.89 and 3.28 and the “DAS increase” value ([1]; DFMO dose 1500 mg/m^2 BID) was “Yes (4×) and No (3×)”. For the same compound, the “UPA Cycle 1 Day 8 (sum of putrescine, N1AcSpd, N8AcSpd and DAS), individual patients” value ([1]; DFMO dose 1500 mg/m^2 BID) was 5.61 and 3.98 and 6.99 and 3.77 and 8.81 and 7.38 and 5.93, the “UPA (C1D1 − C8D1)/C1D1 × 100” value ([1]; ODC SNP rs2302615 genotype Any A) was 0.66 ± 92.00 and the “UPA (C1D1 − C8D1)/C1D1 × 100” value ([1]; ODC SNP rs2302615 genotype GG) was 23.26 ± 35.59. The “UPA (C1D1 − C8D1)/C1D1 × 100” value ([1]; ODC SNP rs2302616 genotype Any T) was 48.32 ± 18.24, the “UPA (C1D1 − C8D1)/C1D1 × 100” value ([1]; ODC SNP rs2302616 genotype GG) was −24.46 ± 83.67 and the “increase of urinary polyamine levels from baseline” value ([1]; after one week of DFMO therapy, GG genotype at rs2302616) was ~25%. For the same compound, the “decrease of urinary polyamine levels from baseline” value ([1]; after one week of DFMO therapy, minor T allele at rs2302616) was ~50%, the “change in urinary N^1AcSpd between Day 8 and 15” value ([1]; cycle 1, N=16 patients with complete data, P=1.000) was “No change” and the “patients with increased urinary DAS” value ([1]; disease progression within 100 days of therapy start) was 9/10. The “urinary N^1AcSpd contents” value ([1]; first two weeks of treatment, population as a whole) was “reduced”, the “average decrease of urinary polyamines from baseline” value ([1]; patients with disease progression after 100 days from start of therapy) was 1.57±3.37 μmol/g Creatinine and the “average increase of total urinary polyamines (putrescine+N^1AcSpd+N^8AcSpd+DAS) from baseline” value ([1]; patients with disease progression less than 100 days after start of therapy) was 6.56±16.29 μmol/g Creatinine. For the same compound, the “patients with increased urinary DAS” value ([1]; progression free up to 100 days) was 1/7 and the “tumors harboring Ki-ras mutations” value [2] was 36%.
